These are literature values, as cited in patent US11136326B2, “Pyrrolopyrimidine derivatives as TAM inhibitors” (Incyte Corporation, priority 2015, dated 2021).

This series has as its system NK cells.

On to `CCOc1cn(-c2ccc(F)cc2C)nc1C(=O)Nc1ccc(Oc2ccnc3cc(OC)c(OC)cc23)c(F)c1` [LDC1267], for which the NK cell activation result is listed as “activates NK cells”.
